# Test system: MCF-10A cells
# Assay: TGF-β1 induction of Sema7A gene expression by qRT-PCR
# Assay type: cell-based, human
# Conditions: 5 ng/ml, within 18 hours, vs vehicle
# Method: We then wanted to establish an in vitro system to study the functional role of Sema7A in the breast epithelia. To do so, we assayed the Sema7A expression in human breast cell lines with varying degrees of malignancy using quantitative real-time PCR (qRT-PCR).
# We treated MCF-10A cells with 5 ng/ml of TGF-β1 or vehicle for 18, 24 or 36 hours. MCF-10A cells were then assayed for Sema7A gene expression by qRT-PCR. […] TGF-β1 is a key inducer of epithelial to mesenchymal transition (EMT) and Sema7A could serve as a down-stream effecter of TGF-β1 in EMT.
substance,measurement,value
"TGF-β1: Transforming growth factor beta-1, used to induce Sema7A expression in MCF-10A breast epithelial cells",expression of Sema7A,significantly increased

# Reference: patent publication US20150111781A1, “ANALYZING SEMAPHORIN7A (Sema7A) LEVELS FOR ASSESSING CANCER METASTATIC POTENTIAL” (Florida Atlantic University, priority 2012, published 2015)
